Source: US20220288069A1, “INHIBITORS OF TYROSINE KINASE” (BridGene Biosciences, Inc., priority 2019, published 2022)

How the values were obtained:
THP−1 = experiment: Cell viability assay (CellTiter-Glo), THP-1; type: cell-based; conditions: THP-1 cells, 72 hr; for GI50: Homo sapiens
Experimental: (§1) Cell viability assay was performed based on the following brief procedures. Cells were plated at the density of 5K/well with volume of […] in 96-well white plate and clear bottom plates. 20 μL of veh. or compound was added at proper concentration to the well. The final volume is 200 μL, with final conc. of DMSO32 0.1%, 11 points, triplicates. The cells were then treated at 37° C. in the TC incubator for 72 hr. Equal volume (200 μL) of CellTiter-Glo reagent (Promega) was added to the well and protect from light at room temperature for 15 min. The chemiluminicent was measured with EnSight (Perkin Elmer). GraphPad Prism non-linear regression, Log[inhibitor] response with four parameters were used to calculate GI50.

MV4−11 = experiment: Cell viability assay (CellTiter-Glo), MV4-11; type: cell-based; conditions: Homo sapiens, MV4-11 cells, 72 hr
Experimental: as §1

FLT3 = biological target: T1, FLT3 (Homo sapiens, UniProt P36888); experiment: Caliper mobility shift kinase inhibition assay, FLT3; type: biochemical; conditions: recombinant kinase; enzyme 0.1 nM, ATP 95 μM, incubation 3 hr
T1 construct: purchased ThermoFisher PV3182
T1 sequence (P36888 27-993): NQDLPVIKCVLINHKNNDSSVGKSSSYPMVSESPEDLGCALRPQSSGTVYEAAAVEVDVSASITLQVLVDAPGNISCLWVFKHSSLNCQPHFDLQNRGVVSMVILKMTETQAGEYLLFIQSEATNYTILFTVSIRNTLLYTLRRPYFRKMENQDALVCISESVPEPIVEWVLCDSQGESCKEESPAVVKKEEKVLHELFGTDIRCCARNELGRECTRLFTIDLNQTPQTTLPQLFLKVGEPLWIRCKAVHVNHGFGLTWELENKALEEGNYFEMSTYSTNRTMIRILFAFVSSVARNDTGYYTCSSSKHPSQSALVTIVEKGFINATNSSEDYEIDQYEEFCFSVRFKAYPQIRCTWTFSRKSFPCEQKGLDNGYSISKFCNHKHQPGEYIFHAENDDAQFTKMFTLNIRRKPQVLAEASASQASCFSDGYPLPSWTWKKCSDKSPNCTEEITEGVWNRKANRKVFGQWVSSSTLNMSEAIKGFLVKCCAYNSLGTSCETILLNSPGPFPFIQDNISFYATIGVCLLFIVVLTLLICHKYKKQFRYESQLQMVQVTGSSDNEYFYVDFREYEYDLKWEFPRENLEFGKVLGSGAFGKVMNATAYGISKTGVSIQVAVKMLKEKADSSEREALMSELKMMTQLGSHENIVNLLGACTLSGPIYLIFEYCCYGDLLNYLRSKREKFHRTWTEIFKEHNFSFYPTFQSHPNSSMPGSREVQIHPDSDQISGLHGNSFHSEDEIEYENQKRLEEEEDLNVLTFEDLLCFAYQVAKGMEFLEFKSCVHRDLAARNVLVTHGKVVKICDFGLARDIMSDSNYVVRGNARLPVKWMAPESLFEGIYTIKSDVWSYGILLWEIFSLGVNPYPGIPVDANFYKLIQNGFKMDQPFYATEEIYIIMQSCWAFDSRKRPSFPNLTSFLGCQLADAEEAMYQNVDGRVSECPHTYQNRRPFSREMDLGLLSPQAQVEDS
Experimental: Compounds' inhibition of recombinant kinases (FGR, FLT3, FMS, KIT, or RON) was measured using Caliper mobility shift assay, which is based on the difference in capillary electrophoresis mobility of a fluorescent-tagged peptide as a result of a phosphorylation by the kinase under study. Reactions were started by the addition of various concentrations of a compound (originally in DMSO solution) to a kinase solution in assay buffer followed by addition of a mixture of ATP and a fluorescent-tagged peptide substrate in assay buffer. Concentrations of the enzyme, ATP and the peptide were pre-optimized so that 15% substrate conversion to ensure initial velocity measurements. After incubation for 3 hours at room temperature, the kinase reaction was quenched by the addition of a concentrated EDTA solution before analysis on a LabChip EZ Reader II to yield percentage inhibition by comparing to the DMSO control.
Table 2 below summarizes the assay conditions for the characterization of the kinase inhibition properties of the disclosed compounds.

Kasumi−1 = experiment: Cell viability assay (CellTiter-Glo), Kasumi-1; type: cell-based; conditions: Homo sapiens, Kasumi-1 cells, 72 hr
Experimental: as §1

SMILES	GI50 (THP−1) [nM]	GI50 (MV4−11) [nM]	IC50 (FLT3) [nM]	GI50 (Kasumi−1) [nM]	THP−1 GI50 (THP−1)
Cc1c(/C=C2\C(=O)Nc3ccc(F)cc32)[nH]c2c1CC[C@@H](CNC(=O)[C@H](C)N(C)C(=O)/C=C/CN(C)C)C2 [Compound 30, (E)-4-(dimethylamino)-N-[(1S)-2-[[(6R)-2-[(Z)-(5-fluoro-2-oxo-indolin-3-ylidene)methyl]-3-methyl-4,5,6,7-tetrahydro-1H-indol-6-yl]methylamino]-1-methyl-2-oxo-ethyl]-N-methyl-but-2-enamide]	≥ 1000	< 10	< 10		
Cc1nc(NCCNC(=O)[C@H](C)N(C)C(=O)/C=C/CN(C)C)cc(Nc2ncc(-c3ccccc3)s2)n1 [Compound 11]	≥ 1000	< 10	< 10	< 10	
Cc1cc(Nc2cc(NCCNC(=O)[C@@H]3COCCN3C(=O)/C=C/CN(C)C)nc(Nc3ccc(CC#N)cc3)n2)n[nH]1 [Compound 2]	≥ 1000	10 to 100	< 10	100 to 1000	
C=CC(=O)N(C)[C@@H](C)C(=O)NCCNC(=O)c1c[nH]c(/C=C2\C(=O)Nc3ccc(F)cc32)c1C [Compound 23, 5-[(5-fluoro-2-oxo-indolin-3-ylidene)methyl]-4-methyl-N-[2-[[(2S)-2-[methyl(prop-2-enoyl)amino]propanoyl]amino]ethyl]-1H-pyrrole-3-carboxamide]	≥ 1000	< 10	< 10		
C=CC(=O)N(C)[C@@H](C)C(=O)NCCOc1cc(Nc2ncc(C3CCC3)s2)nc(CC)n1 [Compound 7, (2S)—N-[2-[6-[(5-cyclobutylthiazol-2-yl)amino]-2-ethyl-pyrimidin-4-yl]oxyethyl]-2-[methyl(prop-2-enoyl)amino]propanamide]	100 to 1000	< 10	< 10	< 10	
C=CC(=O)N(C)[C@@H](C)C(=O)NC[C@H]1CCc2c([nH]c(/C=C3\C(=O)Nc4ccc(F)cc43)c2C)C1 [Compound 27, (2S)—N-[[(6S)-2-[(5-fluoro-2-oxo-indolin-3-ylidene)methyl]-3-methyl-4,5,6,7-tetrahydro-1H-indol-6-yl]methyl]-2-[methyl(prop-2-enoyl)amino]propanamide]	≥ 1000	< 10	< 10		
C/C=C/C(=O)N(C)[C@@H](C)C(=O)NCCOc1cc(Nc2ncc(-c3ccccc3)s2)nc(C)n1 [Compound 16, N-methyl-N-[(1S)-1-methyl-2-[2-[2-methyl-6-[(5-phenylthiazol-2-yl)amino]pyrimidin-4-yl]oxyethylamino]-2-oxoethyl]but-2-enamide]			10 to 100		
CCC(=O)N(C)[C@@H](C)C(=O)NCCNC(=O)c1c[nH]c(/C=C2\C(=O)Nc3ccc(F)cc32)c1C [Compound 24, 5-[(5-fluoro-2-oxo-indolin-3-ylidene)methyl]-4-methyl-N-[2-[[(2S)-2-[methyl(propanoyl)amino]propanoyl]amino]ethyl]-1H-pyrrole-3-carboxamide]		10 to 100	10 to 100		=
C=CC(=O)N(C)[C@@H](C)C(=O)N[C@H]1CCN(c2cc(Nc3ncc(-c4ccncc4)s3)nc(C)n2)C1 [Compound 20, (2S)-2-[methyl(prop-2-enoyl)amino]-N-[(3S)-1-[2-methyl-6-[[5-(4-pyridyl)thiazol-2-yl]amino]pyrimidin-4-yl]pyrrolidin-3-yl]propanamide]			< 10		
C=CC(=O)N1CCC[C@H]1C(=O)NCCNc1cc(Nc2ncc(-c3ccncc3)s2)nc(C)n1 [Compound 22, (2S)—N-[2-[[2-methyl-6-[[5-(4-pyridyl)thiazol-2-yl]amino]pyrimidin-4-yl]amino]ethyl]-1-prop-2-enoyl-pyrrolidine-2-carboxamide]			< 10		
CCc1nc(NCCNC(=O)[C@H](C)N(C)C(=O)/C=C/CN(C)C)cc(Nc2ncc(C3CCC3)s2)n1 [Compound 8, (E)-N-[(1S)-2-[2-[[6-[(5-cyclobutylthiazol-2-yl)amino]-2-ethyl-pyrimidin-4-yl]amino]ethylamino]-1-methyl-2-oxo-ethyl]-4-(dimethylamino)-N-methyl-but-2-enamide]	≥ 1000	< 10	< 10	100 to 1000	
C=CC(=O)N(C)[C@@H](C)C(=O)NCCN(C)c1cc(Nc2ncc(-c3ccncc3)s2)nc(C)n1 [Compound 19, (2S)—N-[2-[methyl-[2-methyl-6-[[5-(4-pyridyl)thiazol-2-yl]amino]pyrimidin-4-yl]amino]ethyl]-2-[methyl(prop-2-enoyl)amino]propanamide]			< 10		
CC#CC(=O)N(C)[C@@H](C)C(=O)NCCNC(=O)c1c[nH]c(/C=C2\C(=O)Nc3ccc(F)cc32)c1C [Compound 25, N-[2-[[(2S)-2-[but-2-ynoyl(methyl)amino]propanoyl]amino]ethyl]-5-[(5-fluoro-2-oxo-indolin-3-ylidene)methyl]-4-methyl-1H-pyrrole-3-carboxamide]	≥ 1000	< 10	< 10		
Cc1c(/C=C2\C(=O)Nc3ccc(F)cc32)[nH]c2c1CC[C@H](CNC(=O)[C@H](C)N(C)C(=O)/C=C/CN(C)C)C2 [Compound 29, (E)-4-(dimethylamino)-N-[(1S)-2-[[(6S)-2-[(Z)-(5-fluoro-2-oxo-indolin-3-ylidene)methyl]-3-methyl-4,5,6,7-tetrahydro-1H-indol-6-yl]methylamino]-1-methyl-2-oxo-ethyl]-N-methyl-but-2-enamide]	≥ 1000	< 10	< 10		
C=CC(=O)N(C)[C@@H](C)C(=O)NC[C@@H]1CCc2c([nH]c(/C=C3\C(=O)Nc4ccc(F)cc43)c2C)C1 [Compound 28, (2S)—N-[[(6R)-2-[(5-fluoro-2-oxo-indolin-3-ylidene)methyl]-3-methyl-4,5,6,7-tetrahydro-1H-indol-6-yl]methyl]-2-[methyl(prop-2-enoyl)amino]propanamide]	≥ 1000	< 10	< 10		
C=CC(=O)N1CCN(C)C[C@H]1C(=O)NCCOc1cc(Nc2ncc(-c3ccccc3)s2)nc(C)n1 [Compound 15, (2S)-4-methyl-N-[2-[2-methyl-6-[(5-phenylthiazol-2-yl)amino]pyrimidin-4-yl]oxyethyl]-1-prop-2-enoyl-piperazine-2-carboxamide]			< 10		
C=CC(=O)N(C)[C@@H](C)C(=O)NCCNc1cc(Nc2ncc(C3CCC3)s2)nc(CC)n1 [Compound 6, (2S)—N-[2-[[6-[(5-cyclobutylthiazol-2-yl)amino]-2-ethyl-pyrimidin-4-yl]amino]ethyl]-2-[methyl(prop-2-enoyl)amino]propanamide]	10 to 100	< 10	< 10	< 10	
C=CC(=O)N1CCOC[C@H]1C(=O)NCCOc1cc(Nc2ncc(-c3ccccc3)s2)nc(C)n1 [Compound 14, (3S)—N-[2-[2-methyl-6-[(5-phenylthiazol-2-yl)amino]pyrimidin-4-yl]oxyethyl]-4-prop-2-enoyl-morpholine-3-carboxamide]			< 10		
C=CC(=O)N1CCC[C@H]1C(=O)N[C@H]1CCN(c2cc(Nc3ncc(-c4ccncc4)s3)nc(C)n2)C1 [Compound 21, (2S)—N-[(3S)-1-[2-methyl-6-[[5-(4-pyridyl)thiazol-2-yl]amino]pyrimidin-4-yl]pyrrolidin-3-yl]-1-prop-2-enoyl-pyrrolidine-2-carboxamide]			< 10		
